Assay results published in ChEMBL document CHEMBL1201861, “Genomics of Drug Sensitity in Cancer screening data, Wellcome Trust Sanger Institute”.

Experiments:
Assay in all cases: cells
Settings in all cases: Homo sapiens
D-263MG = format: functional, cell-based
Description: SANGER: Inhibition of human D-263MG cell growth in a cell viability assay.

HCE-T = format: functional, cell-based;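 note: cell viability assay read-out, reporting inhibition of HCE-T cell growth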
Description: SANGER: Inhibition of human HCE-T cell growth in a cell viability assay.

BT-474 = format: functional, cell-based
Description: SANGER: Inhibition of human BT-474 cell growth in a cell viability assay.

RH-1 = format: functional, cell-based;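 note: growth inhibition of human RH-1 cells, read out with a cell viability assay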
Description: SANGER: Inhibition of human RH-1 cell growth in a cell viability assay.

JVM-2 = format: functional, cell-based;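 note: growth inhibition of JVM-2 cells determined by a cell viability assay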
Description: SANGER: Inhibition of human JVM-2 cell growth in a cell viability assay.

KS-1 = format: functional, cell-based;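 note: growth inhibition of KS-1 cells, read out with a cell viability assay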
Description: SANGER: Inhibition of human KS-1 cell growth in a cell viability assay.

Lu-65 = format: functional, cell-based;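 note: growth inhibition of Lu-65 cancer cells, read out by a cell viability assay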
Description: SANGER: Inhibition of human LU-65 cell growth in a cell viability assay.

HEL = format: functional, cell-based;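 note: growth inhibition of HEL cells, read out with a cell viability assay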
Description: SANGER: Inhibition of human HEL cell growth in a cell viability assay.

SH-4 = format: functional, cell-based;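 note: growth inhibition of SH-4 cells, read out with a cell viability assay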
Description: SANGER: Inhibition of human SH-4 cell growth in a cell viability assay.

J-RT3-T3-5 = format: functional, cell-based;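 note: cell viability assay measuring growth inhibition of human J-RT3-T3-5 cells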
Description: SANGER: Inhibition of human J-RT3-T3-5 cell growth in a cell viability assay.

GR-ST = format: functional, cell-based
Description: SANGER: Inhibition of human GR-ST cell growth in a cell viability assay.

KU812 cell line = format: functional, cell-based;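 note: growth inhibition of KU812 cells, read out with a cell viability assay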
Description: SANGER: Inhibition of human KU812 cell growth in a cell viability assay.

ES3 = format: functional, cell-based;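 note: growth inhibition of ES3 cells, read out with a cell viability assay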
Description: SANGER: Inhibition of human ES3 cell growth in a cell viability assay.

KURAMOCHI = format: functional, cell-based;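 note: growth inhibition of KURAMOCHI cells, read out with a cell viability assay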
Description: SANGER: Inhibition of human KURAMOCHI cell growth in a cell viability assay.

ES8 = format: functional, cell-based;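 note: growth inhibition of human ES8 cells, read out with a cell viability assay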
Description: SANGER: Inhibition of human ES8 cell growth in a cell viability assay.

SCC-15 = format: functional, cell-based;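 note: growth inhibition of SCC-15 cells, read out with a cell viability assay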
Description: SANGER: Inhibition of human SCC-15 cell growth in a cell viability assay.

8-MG-BA = format: functional, cell-based;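 note: growth inhibition of 8-MG-BA cells, read out with a cell viability assay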
Description: SANGER: Inhibition of human 8-MG-BA cell growth in a cell viability assay.

MSTO-211H = format: functional, cell-based
Description: SANGER: Inhibition of human MSTO-211H cell growth in a cell viability assay.

OMC-1 = format: functional, cell-based;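 note: growth inhibition of the OMC-1 cell line, measured by a cell viability assay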
Description: SANGER: Inhibition of human OMC-1 cell growth in a cell viability assay.

SHP77 = format: functional, cell-based, SHP-77;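 note: growth inhibition of human SHP-77 cells measured by a cell viability assay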
Description: SANGER: Inhibition of human SHP-77 cell growth in a cell viability assay.

NTERA-2-cl-D1 = format: functional, cell-based;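 note: inhibition of cell growth, measured with a cell viability assay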
Description: SANGER: Inhibition of human NTERA-S-cl-D1 cell growth in a cell viability assay.

GOTO = format: functional, cell-based;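 note: growth inhibition of GOTO cells, read out by a cell viability assay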
Description: SANGER: Inhibition of human GOTO cell growth in a cell viability assay.

NEC8 = format: functional, cell-based;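 note: growth inhibition of human NEC8 cells, read out by a cell viability assay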
Description: SANGER: Inhibition of human NEC8 cell growth in a cell viability assay.

EW-24 = format: functional, cell-based;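 note: human EW-24 cancer cell line, growth inhibition read out via a cell viability assay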
Description: SANGER: Inhibition of human EW-24 cell growth in a cell viability assay.

ALL-PO = format: functional, cell-based;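 note: growth inhibition of ALL-PO cells, read out by a cell viability assay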
Description: SANGER: Inhibition of human ALL-PO cell growth in a cell viability assay.

EC-GI-10 = format: functional, cell-based
Description: SANGER: Inhibition of human EC-GI-10 cell growth in a cell viability assay.

GT3TKB = format: functional, cell-based;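 note: growth inhibition of the cell line, read out with a cell viability assay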
Description: SANGER: Inhibition of human GT3TKB cell growth in a cell viability assay.

KALS-1 = format: functional, cell-based;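 note: growth inhibition of KALS-1 cells, determined with a cell viability assay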
Description: SANGER: Inhibition of human KALS-1 cell growth in a cell viability assay.

U-266 = format: functional, cell-based
Description: SANGER: Inhibition of human U-266 cell growth in a cell viability assay.

EM-2 = format: functional, cell-based;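 note: growth inhibition of EM-2 cells, read out with a cell viability assay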
Description: SANGER: Inhibition of human EM-2 cell growth in a cell viability assay.

TK-10 = format: functional, cell-based;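 note: growth inhibition of TK-10 cells, read out in a cell viability assay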
Description: SANGER: Inhibition of human TK10 cell growth in a cell viability assay.

NCI-H23 = format: functional, cell-based;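 note: cell viability assay measuring growth inhibition of NCI-H23 cells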
Description: SANGER: Inhibition of human NCI-H23 cell growth in a cell viability assay.

NMC-G1 = format: functional, cell-based;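 note: growth inhibition of the NMC-G1 cell line, measured with a cell viability read-out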
Description: SANGER: Inhibition of human NMC-G1 cell growth in a cell viability assay.

LB1047-RCC = format: functional, cell-based;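 note: inhibition of cell growth, determined with a cell viability assay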
Description: SANGER: Inhibition of human LB1047-RCC cell growth in a cell viability assay.

NCI-H1650 = format: functional, cell-based;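 note: growth inhibition of human NCI-H1650 cells measured by a cell viability assay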
Description: SANGER: Inhibition of human NCI-H1650 cell growth in a cell viability assay.

KNS-42 = format: functional, cell-based;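 note: growth inhibition of KNS-42 cells, read out with a cell viability assay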
Description: SANGER: Inhibition of human KNS-42 cell growth in a cell viability assay.

SK-N-DZ = format: functional, cell-based;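 note: growth inhibition of the cancer cell line, read out through a viability assay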
Description: SANGER: Inhibition of human SK-N-DZ cell growth in a cell viability assay.

NCI-H720 = format: functional, cell-based;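 note: growth inhibition of human NCI-H720 cells determined by a cell viability assay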
Description: SANGER: Inhibition of human NCI-H720 cell growth in a cell viability assay.

DSH1 = format: functional, cell-based;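 note: growth inhibition of human DSH1 cells, measured with a cell viability readout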
Description: SANGER: Inhibition of human DSH1 cell growth in a cell viability assay.

LS-411N = format: functional, cell-based
C2BBe1 = format: functional, cell-based;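 note: growth inhibition of C2BBe1 cells, read out through a viability assay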
Description: SANGER: Inhibition of human C2BBe1 cell growth in a cell viability assay.

CCRF-CEM = format: functional, cell-based;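 note: inhibition of CCRF-CEM cell growth, measured by a cell viability assay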
Description: SANGER: Inhibition of human CCRF-CEM cell growth in a cell viability assay.

MOLT-4 = format: functional, cell-based;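 note: growth inhibition of MOLT-4 cells, determined with a cell viability readout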
Description: SANGER: Inhibition of human MOLT-4 cell growth in a cell viability assay.

P30-OHK = format: functional, cell-based;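 note: growth inhibition of the P30-OHK cell line, read out with a cell viability assay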
Description: SANGER: Inhibition of human P30-OHK cell growth in a cell viability assay.

EW-11 = format: functional, cell-based;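 note: growth inhibition of human EW-11 cells, measured with a cell viability assay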
Description: SANGER: Inhibition of human EW-11 cell growth in a cell viability assay.

SBC-1 = format: functional, cell-based;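 note: cell viability assay measuring growth inhibition of the SBC-1 cell line, IC50 being the concentration that halves growth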
Description: SANGER: Inhibition of human SBC-1 cell growth in a cell viability assay.

COR-L88 = format: functional, cell-based;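 note: growth inhibition of COR-L88 cells, read out with a cell viability assay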
Description: SANGER: Inhibition of human COR-L88 cell growth in a cell viability assay.

NB5 = format: functional, cell-based;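 note: growth inhibition of NB5 cells, read out as cell viability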
Description: SANGER: Inhibition of human NB5 cell growth in a cell viability assay.

KY821 = format: functional, cell-based;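 note: growth inhibition of human KY821 cells, read out by a cell viability assay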
Description: SANGER: Inhibition of human KY821 cell growth in a cell viability assay.

LB373-MEL-D = format: functional, cell-based;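 note: growth inhibition of the cell line, read out in a cell viability assay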
Description: SANGER: Inhibition of human LB373-MEL-D cell growth in a cell viability assay.

MLMA = format: functional, cell-based;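 note: growth inhibition of MLMA cells (human), determined through a cell viability readout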
Description: SANGER: Inhibition of human MLMA cell growth in a cell viability assay.

IST-MES1 = format: functional, cell-based;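 note: growth inhibition of IST-MES1 cells, measured with a cell viability assay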
Description: SANGER: Inhibition of human IST-MES1 cell growth in a cell viability assay.

GCIY = format: functional, cell-based;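 note: growth inhibition of the human GCIY cell line, read out by a cell viability assay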
Description: SANGER: Inhibition of human GCIY cell growth in a cell viability assay.

COLO-668 = format: functional, cell-based
Description: SANGER: Inhibition of human COLO-668 cell growth in a cell viability assay.

NCI-H1648 = format: functional, cell-based;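 note: cell viability assay measuring inhibition of NCI-H1648 cell growth, from the Sanger screening data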
Description: SANGER: Inhibition of human NCI-H1648 cell growth in a cell viability assay.

LS-123 = format: functional, cell-based
Description: SANGER: Inhibition of human LS-123 cell growth in a cell viability assay.

KNS-81-FD = format: functional, cell-based;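 note: growth inhibition of KNS-81-FD cells, read out with a cell viability assay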
Description: SANGER: Inhibition of human KNS-81-FD cell growth in a cell viability assay.

K5 = format: functional, cell-based
Description: SANGER: Inhibition of human K5 cell growth in a cell viability assay.

CGTH-W-1 = format: functional, cell-based;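 note: growth inhibition of human CGTH-W-1 cells measured by cell viability assay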
Description: SANGER: Inhibition of human CGTH-W-1 cell growth in a cell viability assay.

HOP-62 = format: functional, cell-based
Description: SANGER: Inhibition of human HOP-62 cell growth in a cell viability assay.

SNU-C2B = format: functional, cell-based
Description: SANGER: Inhibition of human SNU-C2B cell growth in a cell viability assay.

D283 Med = format: functional, cell-based
Description: SANGER: Inhibition of human D-283MED cell growth in a cell viability assay.

BB65-RCC = format: functional, cell-based
Description: SANGER: Inhibition of human BB65-RCC cell growth in a cell viability assay.

LNCaP-Clone-FGC = format: functional, cell-based
Description: SANGER: Inhibition of human LNCaP-Clone-FGC cell growth in a cell viability assay.

KE-37 = format: functional, cell-based
Description: SANGER: Inhibition of human KE-37 cell growth in a cell viability assay.

HCE-4 = format: functional, cell-based
Description: SANGER: Inhibition of human HCE-4 cell growth in a cell viability assay.

Compound: Fc1cc(-c2cc[nH]/c(=N/c3ccc(-n4cnc(N5CCOCC5)n4)cc3)n2)cc(N2CCOCC2)c1
- IC50 (D-263MG): 0.725 µM
- IC50 (HCE-T): 2.79 µM
- IC50 (BT-474): 1.13 µM
- IC50 (RH-1): 0.919 µM
- IC50 (JVM-2): 3.3 µM
- IC50 (KS-1): 0.159 µM
- IC50 (Lu-65): 1.66 µM
- IC50 (HEL): 0.548 µM
- IC50 (SH-4): 0.41 µM
- IC50 (J-RT3-T3-5): 0.689 µM
- IC50 (GR-ST): 0.647 µM
- IC50 (KU812 cell line): 0.338 µM
- IC50 (ES3): 1.09 µM
- IC50 (KURAMOCHI): 0.598 µM
- IC50 (ES8): 0.135 µM
- IC50 (SCC-15): 0.803 µM
- IC50 (8-MG-BA): 0.116 µM
- IC50 (MSTO-211H): > 5.12 µM
- IC50 (OMC-1): 3.97 µM
- IC50 (SHP77): 0.825 µM
- IC50 (NTERA-2-cl-D1): 0.316 µM
- IC50 (GOTO): 0.809 µM
- IC50 (NEC8): 1.01 µM
- IC50 (EW-24): > 5.12 µM
- IC50 (ALL-PO): 0.671 µM
- IC50 (EC-GI-10): 2.24 µM
- IC50 (GT3TKB): 0.302 µM
- IC50 (KALS-1): 0.451 µM
- IC50 (U-266): 0.882 µM
- IC50 (EM-2): 1.15 µM
- IC50 (TK-10): 1.19 µM
- IC50 (NCI-H23): > 5.12 µM
- IC50 (NMC-G1): 1.1 µM
- IC50 (LB1047-RCC): 0.402 µM
- IC50 (NCI-H1650): 0.624 µM
- IC50 (KNS-42): 1.09 µM
- IC50 (SK-N-DZ): 1.86 µM
- IC50 (NCI-H720): > 5.12 µM
- IC50 (DSH1): 0.709 µM
- IC50 (LS-411N): 0.198 µM
- IC50 (C2BBe1): 0.764 µM
- IC50 (CCRF-CEM): 0.364 µM
- IC50 (MOLT-4): 0.716 µM
- IC50 (P30-OHK): 0.299 µM
- IC50 (EW-11): 1.21 µM
- IC50 (SBC-1): > 5.12 µM
- IC50 (COR-L88): 2.57 µM
- IC50 (NB5): > 5.12 µM
- IC50 (KY821): > 5.12 µM
- IC50 (LB373-MEL-D): 2.19 µM
- IC50 (MLMA): 0.484 µM
- IC50 (IST-MES1): 1.97 µM
- IC50 (GCIY): 0.129 µM
- IC50 (COLO-668): 0.376 µM
- IC50 (NCI-H1648): 0.473 µM
- IC50 (LS-123): 1.25 µM
- IC50 (KNS-81-FD): 4.95 µM
- IC50 (K5): 0.83 µM
- IC50 (CGTH-W-1): 0.0825 µM
- IC50 (HOP-62): 0.248 µM
- IC50 (SNU-C2B): 0.637 µM
- IC50 (D283 Med): 2.56 µM
- IC50 (BB65-RCC): 0.924 µM
- IC50 (LNCaP-Clone-FGC): 0.903 µM
- IC50 (KE-37): 0.289 µM
- IC50 (HCE-4): 0.903 µM

Compound: Cc1[nH]c(/C=C2\C(=O)Nc3ccc(S(=O)(=O)Cc4c(Cl)cccc4Cl)cc32)c(C)c1C(=O)N1CCC[C@@H]1CN1CCCC1 [PHA-665752]
- IC50 (D-263MG): > 2 µM
- IC50 (HCE-T): > 2 µM
- IC50 (BT-474): > 2 µM
- IC50 (RH-1): > 2 µM
- IC50 (JVM-2): > 2 µM
- IC50 (KS-1): > 2 µM
- IC50 (Lu-65): > 2 µM
- IC50 (HEL): > 2 µM
- IC50 (SH-4): > 2 µM
- IC50 (J-RT3-T3-5): > 2 µM
- IC50 (GR-ST): > 2 µM
- IC50 (KU812 cell line): > 2 µM
- IC50 (ES3): > 2 µM
- IC50 (KURAMOCHI): > 2 µM
- IC50 (ES8): > 2 µM
- IC50 (SCC-15): > 2 µM
- IC50 (8-MG-BA): > 2 µM
- IC50 (MSTO-211H): > 2 µM
- IC50 (OMC-1): > 2 µM
- IC50 (SHP77): > 2 µM
- IC50 (NTERA-2-cl-D1): > 2 µM
- IC50 (GOTO): > 2 µM
- IC50 (NEC8): > 2 µM
- IC50 (EW-24): > 2 µM
- IC50 (ALL-PO): 0.813 µM
- IC50 (EC-GI-10): > 2 µM
- IC50 (GT3TKB): > 2 µM
- IC50 (KALS-1): > 2 µM
- IC50 (U-266): > 2 µM
- IC50 (EM-2): > 2 µM
- IC50 (TK-10): > 2 µM
- IC50 (NCI-H23): > 2 µM
- IC50 (NMC-G1): > 2 µM
- IC50 (LB1047-RCC): > 2 µM
- IC50 (NCI-H1650): > 2 µM
- IC50 (KNS-42): > 2 µM
- IC50 (SK-N-DZ): > 2 µM
- IC50 (NCI-H720): > 2 µM
- IC50 (DSH1): > 2 µM
- IC50 (LS-411N): > 2 µM
- IC50 (C2BBe1): > 2 µM
- IC50 (CCRF-CEM): > 2 µM
- IC50 (MOLT-4): > 2 µM
- IC50 (P30-OHK): > 2 µM
- IC50 (EW-11): > 2 µM
- IC50 (SBC-1): > 2 µM
- IC50 (COR-L88): > 2 µM
- IC50 (NB5): > 2 µM
- IC50 (KY821): > 2 µM
- IC50 (LB373-MEL-D): > 2 µM
- IC50 (MLMA): > 2 µM
- IC50 (IST-MES1): > 2 µM
- IC50 (GCIY): > 2 µM
- IC50 (COLO-668): > 2 µM
- IC50 (NCI-H1648): > 2 µM
- IC50 (LS-123): > 2 µM
- IC50 (KNS-81-FD): > 2 µM
- IC50 (K5): > 2 µM
- IC50 (CGTH-W-1): > 2 µM
- IC50 (HOP-62): > 2 µM
- IC50 (SNU-C2B): > 2 µM
- IC50 (D283 Med): > 2 µM
- IC50 (BB65-RCC): > 2 µM
- IC50 (LNCaP-Clone-FGC): > 2 µM
- IC50 (KE-37): > 2 µM
- IC50 (HCE-4): > 2 µM
